In patent publication US20150105252A1, “SUBSTITUTED PYRAZOLES AS HERBICIDES” (E I DU PONT DE NEMOURS AND COMPANY, priority 2013, published 2015):

Key:
[1] = tested on: barnyardgrass; assay: Test A preemergence; type: in vivo, Echinochloa crus-galli; conditions: preemergence
How it was run: (§1)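 After sowing in a sand–loam mix, pots received compound preemergence by directed soil spray, or postemergence once plants reached the one- to two-leaf stage (2–10 cm). Formulation contained surfactant in a non-phytotoxic solvent. Injury was scored visually after ~10 greenhouse days, 0–100 scale.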

[2] = tested on: crabgrass, large; assay: Test A preemergence; type: in vivo, Digitaria sanguinalis; conditions: preemergence; for Crabgrass, Large plant response rating (0 to 100 scale): visual injury approx. 10 days after treatment
How it was run: as §1

[3] = tested on: foxtail, giant; assay: Test A preemergence; type: in vivo, Setaria faberii; conditions: preemergence; for Foxtail, Giant plant response rating (0 to 100 scale): visual injury approx. 10 days after treatment
How it was run: as §1

[4] = tested on: morningglory; assay: Test A preemergence; type: in vivo, Ipomoea spp.; conditions: preemergence; for Morningglory plant response rating (0 to 100 scale): visual injury approx. 10 days after treatment
How it was run: as §1

[5] = tested on: pigweed; assay: Test A preemergence; type: in vivo, Amaranthus retroflexus; conditions: preemergence; for Pigweed plant response rating (0 to 100 scale): visual injury approx. 10 days after treatment
How it was run: as §1

[6] = tested on: velvetleaf; assay: Test A preemergence; type: in vivo, Abutilon theophrasti; conditions: preemergence; for Velvetleaf plant response rating (0 to 100 scale): visual injury approx. 10 days after treatment
How it was run: as §1

[7] = tested on: wheat; assay: Test A preemergence; type: in vivo, Triticum aestivum; conditions: preemergence; for Wheat plant response rating (0 to 100 scale): visual injury approx. 10 days after treatment
How it was run: as §1

[8] = tested on: corn; assay: Test A preemergence; type: in vivo, Zea mays; conditions: preemergence; for Corn plant response rating (0 to 100 scale): visual injury approx. 10 days after treatment
How it was run: as §1

[9] = tested on: barnyardgrass; assay: Test A postemergence; type: in vivo, Echinochloa crus-galli
How it was run: as §1

[10] = tested on: crabgrass, large; assay: Test A postemergence; type: in vivo, Digitaria sanguinalis
How it was run: as §1

[11] = tested on: foxtail, giant; assay: Test A postemergence; type: in vivo, Setaria faberii
How it was run: as §1

[12] = tested on: morningglory; assay: Test A postemergence; type: in vivo, Ipomoea spp.
How it was run: as §1

[13] = tested on: pigweed; assay: Test A postemergence; type: in vivo, Amaranthus retroflexus
How it was run: as §1

[14] = tested on: velvetleaf; assay: Test A postemergence; type: in vivo, Abutilon theophrasti
How it was run: as §1

[15] = tested on: wheat; assay: Test A postemergence; type: in vivo, Triticum aestivum
How it was run: as §1

[16] = tested on: corn; assay: Test A postemergence; type: in vivo, Zea mays
How it was run: as §1

[17] = tested on: rice; assay: Test B flood; type: in vivo, Oryza sativa; conditions: 250 g ai/ha, visual rating on 0 to 100 scale (0 no effect, 100 complete control), 13 to 15 days
How it was run: (§2)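 2-leaf plants; pots flooded 3 cm over soil; compound added to paddy water, depth kept constant. Greenhouse 13–15 d. Visual rating vs controls, 0–100 scale (100 = complete control); dash = no result.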

[18] = tested on: sedge, umbrella; assay: Test B flood; type: in vivo, Cyperus difformis; conditions: 250 g ai/ha, visual rating on 0 to 100 scale (0 no effect, 100 complete control), 13 to 15 days
How it was run: as §2

[19] = tested on: ducksalad; assay: Test B flood; type: in vivo, Heteranthera limosa; conditions: 250 g ai/ha, visual rating on 0 to 100 scale (0 no effect, 100 complete control), 13 to 15 days
How it was run: as §2

[20] = tested on: barnyardgrass; assay: Test B flood; type: in vivo, Echinochloa crus-galli; conditions: 250 g ai/ha, visual rating on 0 to 100 scale (0 no effect, 100 complete control), 13 to 15 days
How it was run: as §2

[21] = 125 g ai/ha, visual injury, 0 to 100 scale, approx. 10 days
[22] = 500 g ai/ha, visual injury after approx. 10 days, 0 to 100 scale (0 no effect, 100 complete control)
[23] = Postemergence, 500 g ai/ha, visual rating after approx. 10 days, 0 to 100 scale (0 no effect, 100 complete control)
[24] = postemergence, 125 g ai/ha, about 10 days, visual rating on 0 to 100 scale (0 no effect, 100 complete control)
[25] = Postemergence, 500 g ai/ha, 0 to 100 scale (0 no effect, 100 complete control)

SMILES | Barnyardgrass plant response rating [1, 21] | Barnyardgrass plant response rating [1, 22] | Crabgrass, Large plant response rating [2, 22] | Foxtail, Giant plant response rating [3, 22] | Morningglory plant response rating [4, 22] | Pigweed plant response rating [5, 22] | Velvetleaf plant response rating [6, 22] | Wheat plant response rating [7, 22] | Corn plant response rating [8, 22] | Barnyardgrass plant response rating [9, 24] | Crabgrass, Large plant response rating [10, 24] | Foxtail, Giant plant response rating [11, 24] | Morningglory plant response rating [12, 24] | Pigweed plant response rating [13, 24] | Velvetleaf plant response rating [14, 24] | Wheat plant response rating [15, 24] | Corn plant response rating [16, 24] | Plant response rating, Rice [17] | Plant response rating, Sedge, Umbrella [18] | Plant response rating, Ducksalad [19] | also measured
CCCNC(=O)c1cc(CC)n(Cc2cc(C(F)(F)F)nn2CC)n1 [Compound 117] | 30 | 80 | 100 | 100 | 100 | 100 | 0 | 0 | 10 | 40 | 20 | 20 | 60 | 50 | 40 | 0 | 20 | 20 | 75 | 50 | Crabgrass, Large plant response rating [2, 21]: 90; Foxtail, Giant plant response rating [3, 21]: 70; Morningglory plant response rating [4, 21]: 30; Pigweed plant response rating [5, 21]: 90; Velvetleaf plant response rating [6, 21]: 0; Wheat plant response rating [7, 21]: 0; Corn plant response rating [8, 21]: 0; Barnyardgrass plant response rating [9, 23]: 80; Crabgrass, Large plant response rating [10, 23]: 80; Foxtail, Giant plant response rating [11, 23]: 90; Morningglory plant response rating [12, 23]: 90; Pigweed plant response rating [13, 23]: 80; Velvetleaf plant response rating [14, 23]: 80; Wheat plant response rating [15, 23]: 0; Corn plant response rating [16, 23]: 50; Plant response rating, Barnyardgrass [20]: 0
CCc1cc(C(=O)NC(C)C)nn1Cc1cc(C(F)(F)F)nn1CC [Compound 120] | 20 | 100 | 100 | 90 | 100 | 90 | 70 | 40 | 50 | 30 | 30 | 30 | 80 | 50 | 30 | 0 | 30 | 0 | 80 | 40 | Crabgrass, Large plant response rating [2, 21]: 100; Foxtail, Giant plant response rating [3, 21]: 60; Morningglory plant response rating [4, 21]: 70; Pigweed plant response rating [5, 21]: 70; Velvetleaf plant response rating [6, 21]: 10; Wheat plant response rating [7, 21]: 0; Corn plant response rating [8, 21]: 20; Barnyardgrass plant response rating [9, 25]: 90; Crabgrass, Large plant response rating [10, 25]: 80; Foxtail, Giant plant response rating [11, 25]: 70; Morningglory plant response rating [12, 25]: 100; Pigweed plant response rating [13, 25]: 80; Velvetleaf plant response rating [14, 25]: 80; Wheat plant response rating [15, 25]: 30; Corn plant response rating [16, 25]: 60; Plant response rating, Barnyardgrass [20]: 0
CCc1cc(C(=O)NCC#N)nn1Cc1ccnc(C(F)(F)F)c1 [Compound 147] | 0 | 30 | 100 | 80 | 70 | 100 | 30 | 0 | 0 | 10 | 10 | 10 | 30 | 60 | 30 | 0 | 0 | 0 | 0 | 0 | Crabgrass, Large plant response rating (0 to 100 scale) ([2]; 125 g ai/ha): 50; Foxtail, Giant plant response rating (0 to 100 scale) ([3]; 125 g ai/ha): 10; Morningglory plant response rating (0 to 100 scale) ([4]; 125 g ai/ha): 20; Pigweed plant response rating (0 to 100 scale) ([5]; 125 g ai/ha): 90; Velvetleaf plant response rating (0 to 100 scale) ([6]; 125 g ai/ha): 0; Wheat plant response rating (0 to 100 scale) ([7]; 125 g ai/ha): 0; Corn plant response rating (0 to 100 scale) ([8]; 125 g ai/ha): 0; Barnyardgrass plant response rating [9, 25]: 30; Crabgrass, Large plant response rating [10, 25]: 40; Foxtail, Giant plant response rating [11, 25]: 30; Morningglory plant response rating [12, 25]: 70; Pigweed plant response rating [13, 25]: 90; Velvetleaf plant response rating [14, 25]: 50; Wheat plant response rating [15, 25]: 0; Corn plant response rating [16, 25]: 10; Plant response rating, Barnyardgrass [20]: 0
CCCCc1cc(C(=O)NOCC)nn1Cc1ccnc(C(F)(F)F)c1 [Compound 152] | 0 | 60 | 80 | 60 | 20 | 100 | 20 | 0 | 0 | 10 | 10 | 10 | 40 | 60 | 20 | 0 | 10 | 0 | 0 | 0 | Crabgrass, Large plant response rating (0 to 100 scale) ([2]; 125 g ai/ha): 40; Foxtail, Giant plant response rating (0 to 100 scale) ([3]; 125 g ai/ha): 10; Morningglory plant response rating (0 to 100 scale) ([4]; 125 g ai/ha): 0; Pigweed plant response rating (0 to 100 scale) ([5]; 125 g ai/ha): 100; Velvetleaf plant response rating (0 to 100 scale) ([6]; 125 g ai/ha): 0; Wheat plant response rating (0 to 100 scale) ([7]; 125 g ai/ha): 0; Corn plant response rating (0 to 100 scale) ([8]; 125 g ai/ha): 0; Barnyardgrass plant response rating [9, 25]: 50; Crabgrass, Large plant response rating [10, 25]: 60; Foxtail, Giant plant response rating [11, 25]: 40; Morningglory plant response rating [12, 25]: 60; Pigweed plant response rating [13, 25]: 80; Velvetleaf plant response rating [14, 25]: 60; Wheat plant response rating [15, 25]: 0; Corn plant response rating [16, 25]: 30; Plant response rating, Barnyardgrass [20]: 0
CCCNC(=O)c1cc(Br)n(Cc2cccc(C(F)(F)F)c2)n1 [Compound 159] | 0 | 20 | 90 | 30 | 0 | 60 | 0 | 0 | 0 | 0 | 20 | 20 | 30 | 50 | 60 | 0 | 10 | 0 | 0 | 0 | Crabgrass, Large plant response rating (0 to 100 scale) ([2]; 125 g ai/ha): 10; Foxtail, Giant plant response rating (0 to 100 scale) ([3]; 125 g ai/ha): 0; Morningglory plant response rating (0 to 100 scale) ([4]; 125 g ai/ha): 0; Pigweed plant response rating (0 to 100 scale) ([5]; 125 g ai/ha): 10; Velvetleaf plant response rating (0 to 100 scale) ([6]; 125 g ai/ha): 0; Wheat plant response rating (0 to 100 scale) ([7]; 125 g ai/ha): 0; Corn plant response rating (0 to 100 scale) ([8]; 125 g ai/ha): 0; Barnyardgrass plant response rating [9, 25]: 30; Crabgrass, Large plant response rating [10, 25]: 30; Foxtail, Giant plant response rating [11, 25]: 30; Morningglory plant response rating [12, 25]: 40; Pigweed plant response rating [13, 25]: 60; Velvetleaf plant response rating [14, 25]: 70; Wheat plant response rating [15, 25]: 20; Corn plant response rating [16, 25]: 20; Plant response rating, Barnyardgrass [20]: 0
